PubChem BioAssay AID1963433 (Molecular Pharmacology Branch, DTP, NCI, 2024)
“And” between values parts separate entries of the source, which are not always exact repeats. Identical values can stand only once.

Tested on: 772245-204-R-J1-PDC complex spheroid growth
Test: Anticancer human tumor 772245-204-R-J1-PDC patient-derived rhabdomyosarcoma cell line growth inhibition [Asc]
Conditions: for viability, T/C: stronger effect = lower value
Procedure: Multicellular complex tumor spheroid response to apoptosis pathway targeting inhibitors Alrizomadlin, Pelcitoclax, and Dasminapant in combination with a variety of drugs and investigational agents in selected tumor cell lines
The MDM2 inhibitor alrizomadlin, the Bcl-2/Bcl-xL inhibitor pelcitoclax, and the IAPs inhibitor dasminapant were evaluated both individually and in combination with standard of care and investigational anticancer small molecules within a complex spheroid model of solid tumors. . Complex spheroids include a stromal component modeled by human endothelial cells (HUVEC) and fibroblasts modeled by human mesenchymal stem cells (MSCs). The concentration ranges selected for each drug and investigational agent were based upon clinically achievable concentrations if the clinical Cmax of the agent was known.
Compounds. The drugs and investigational agents: alrizomadlin (APG-115; NSC831270), pelcitoclax (APG-1252; NSC835773), dasminapant (APG-1387;NSC834197), TAK-243 (NSC785004), copanlisib (NSC809693), olaparib (NSC753686), talazoparib (NSC767125), cobimetinib (NSC 768068), eltanexor (KPT-8602, NSC 794443), abemaciclib (NSC 768073), sotorasib (NSC818433), adagrasib (NSC 831453), MRTX-1133 (NSC 836407), Iadademestat (ORY1001, NSC 806812), and RMC-4630 (NSC839698), were obtained from the NCI Developmental Therapeutics Program Chemical Repository. The FDA-approved anticancer drug set is available from the Developmental Therapeutics Program at https://dtp.cancer.gov/organization/dscb/obtaining/available plates.htm. […] The stock solutions were prepared in dimethyl sulfoxide (DMSO, Sigma-Aldrich, St. Louis, MO, cat. D2650) at 800-fold the tested concentration and stored at -70 degrees C prior to their use. All drugs and investigational agents were tested over a range starting from a high concentration at or near the clinical Cmax and decreasing in half-log increments. If the clinical Cmax for an agent had not been determined, the highest concentration tested was 10 microM.
The patient-derived cancer (PDC) cell lines include five colon adenocarcinomas: 186277-243-T-J2-PDC, 616215-338-R-J1-PDC, 439559-082-T-J2-PDC, 463943-066-T-J2-PDC, and 519858-162-T-J1-PDC; three pancreatic carcinomas: 323965-272-R-J2-PDC, 521955-158-R6-J3-PDC, and 521955-158-R2-J5-PDC; two uterine sarcomas: 327498-152-R-J2-PDC and 993429-296-R-J1-PDC; two rhabdomyosarcomas: 755483-174-R-J1-PDC and 772245-204-R-J1-PDC; two soft tissue sarcomas: 126254-015-R-J1-PDC and 494315-158-R-J1-PDC; two malignant fibrous histiocytomas: 317291-083-R-J1-PDC and 596521-263-R-J1-PDC; two breast carcinomas: 171881-019-R-J1-PDC and 885512-296-R-J2-PDC; and one ovarian carcinoma: 6556581-035-R-J-PDC were obtained from the NCI PDMR, (https://pdmr.cancer.gov). The established cell lines HSSY-2 synovial sarcoma (RRID:CVCL 8719), SYO-1 synovial sarcoma (RRID:CVCL_7146), MPNST malignant peripheral neural sheath tumor were obtained from the Sloan Kettering Institute. The following established cell lines were purchased from the American Type Culture Collection (ATCC, Manassas, VA), Sor the received from the NCI repository:, PANC-1 pancreatic carcinoma (CRL-1469, RRID:CVCL_0480), OVCAR-5 ovarian carcinoma (RRID:CVCL_1628), OVCAR-8 ovarian carcinoma (RRID:CVCL_1629), , MCF-7 breast carcinoma (CRL-12584, RRID:CVCL_0031), MDA-MB-231 breast carcinoma (CRL-12532, RRID:CVCL_0062), NCI-H1876 small cell lung carcinoma (CRL-5902, RRID:CVCL_1503), NCI-H510A small cell lung carcinoma (HTB-184, RRID:CVCL_1565), NCI-H1417 (CRL-5869, RRID:CVCL_1469), and NCI-H196 small cell lung carcinoma (CRL-5823, RRID:CVCL_1509). Dr. Peter Houghton (Greehey Children's Cancer Research Institute, University of Texas Health Science Center, San Antonio, TX) provided Rh-18 rhabdomyosarcoma (RRID:CVCL_1659). Pooled donor human umbilical vein endothelial cells (HUVEC, Lonza, cat. CC-2519) and human mesenchymal stem cells (hMSC, Lonza, cat. PT-2501) were purchased from Lonza (Walkersville, MD).
Cell Culture. […]
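Also: compound exposure lasted seven days.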
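For viability, T/C in this document: 100% = DMSO vehicle control viability.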

| SMILES | viability, T/C (compound 0.0316 µM) | viability, T/C (compound 0.1 µM) | viability, T/C (compound 0.316 µM) | viability, T/C (compound 1 µM) | IC50 (curve of compound) | viability, T/C (compound 0.00316 µM) | viability, T/C (compound 0.01 µM) | other results |
| --- | --- | --- | --- | --- | --- | --- | --- | --- |
| C#Cc1c(F)ccc2cc(O)cc(-c3ncc4c(N5CC6CCC(C5)N6)nc(OCC56CCCN5CC(F)C6)nc4c3F)c12 (stereo not drawn) | 102% and 92.9% and 100% | 101% and 80.2% and 97.7% | 93% and 86.2% and 90.3% | 106% and 74.9% and 95.2% | > 10000 nM | – | – | viability, T/C (compound 3.16 µM): 117% and 85.7% and 91.6%; viability, T/C (compound 10 µM): 109% and 66.4% and 75.8% |
| C=C(F)C(=O)N1CCN(c2nc(OCC3CCCN3C)nc3c2CCN(c2cccc4cccc(Cl)c24)C3)CC1CC#N (stereo not drawn) | 92.1% and 101% and 100% | 85.8% and 91.9% and 89.9% | 77.3% and 99.5% and 104% | 87.6% and 98.4% and 95.1% | 3970 nM and 4730 nM and 7910 nM | – | – | viability, T/C (compound 3.16 µM): 62.3% and 76.7% and 101% |
| C=CC(=O)N1CCN(c2nc(=O)n(-c3c(C)ccnc3C(C)C)c3nc(-c4c(O)cccc4F)c(F)cc23)C(C)C1 (stereo not drawn) | 91.4% and 88.5% and 102% | 97.5% and 109% and 89.4% | 95.3% and 97% and 98% | 90.4% and 101% and 97.3% | > 10000 nM | – | – | viability, T/C (compound 3.16 µM): 90.9% and 102% and 111%; viability, T/C (compound 10 µM): 79.6% and 97.6% and 109% |
| CCN1C(C(=O)NC23CCC(C(=O)O)(CC2)CC3)C(c2cccc(Cl)c2F)C2(C(=O)Nc3cc(Cl)ccc32)C12CCCCC2 (stereo not drawn) | – | – | – | – | > 3000 nM | – | – | viability, T/C (compound 0.00949 µM): 107% and 93.5%; IC50 (compound alone, run of 10/11/2022): > 3000 nM |
| CCN1CCN(Cc2ccc(Nc3ncc(F)c(-c4cc(F)c5nc(C)n(C(C)C)c5c4)n3)nc2)CC1 | 103% and 87.5% and 96.3% | 99.7% and 97.4% and 104% | 100% and 102% and 97% | 112% and 121% and 102% | > 1000 nM | 90.5% and 99% and 71.9% | 88.2% and 90.2% and 79.9% | – |
| CNC(C)C(=O)NC1CN(S(=O)(=O)c2cccc(S(=O)(=O)N3CCC4CCC(C(=O)NC(c5ccccc5)c5ccccc5)N4C(=O)C(NC(=O)C(C)NC)C3)c2)CCC2CCC(C(=O)NC(c3ccccc3)c3ccccc3)N2C1=O (stereo not drawn) | – | – | – | – | > 1000 nM | 94.7% and 94.4% and 79% | 93.9% [middle of 14 runs] | IC50 (compound alone, run of 10/24/2022): > 1000 nM; IC50 (compound alone, run of 11/15/2022): > 1000 nM |
| COc1c(OCCCN2CCOCC2)ccc2c3n(c(=NC(=O)c4cnc(N)nc4)nc12)CCN3 | 77% and 76.2% and 90.4% | 46.1% and 55.2% and 63.9% | 41.3% and 42% and 43.8% | 24.4% and 25.4% and 35.3% | 105 nM and 175 nM and 217 nM | 94.7% and 116% and 107% | 91.3% and 98.9% and 106% | – |
| Cc1c(S(C)(=O)=O)c(-c2cc(F)cc(N3CCN(c4ccc(NS(=O)(=O)c5ccc(NC(CCN6CCC(C(=O)OCCCP(=O)(O)O)CC6)CSc6ccccc6)c(S(=O)(=O)C(F)(F)F)c5)cc4)CC3)c2)c(-c2ccc(Cl)cc2)n1C(C)C (stereo not drawn) | – | 82.6% [middle of 14 runs] | 67.3% [middle of 14 runs] | 53.8% [middle of 14 runs] | – | – | – | viability, T/C (compound 10 µM): 45.4% [middle of 14 runs] |
| Cc1nc(N2CCC3(CC2)COC(C)C3N)c(CO)nc1Sc1ccnc(N)c1Cl (stereo not drawn) | – | – | – | – | > 3000 nM | – | – | viability, T/C (compound 0.00949 µM): 98.8% and 123% and 100%; viability, T/C (compound 0.03 µM): 104% and 119% and 120%; viability, T/C (compound 0.0949 µM): 112% and 104% and 89.2%; viability, T/C (compound 0.3 µM): 106% and 90.1% and 102%; viability, T/C (compound 0.949 µM): 99.9% and 85.1% and 77%; viability, T/C (compound 3 µM): 91.5% and 57.5% and 54.3% |
| Cn1ncnc1[C@H]1c2n[nH]c(=O)c3cc(F)cc(c23)N[C@@H]1c1ccc(F)cc1 | 69.3% and 101% and 82.6% | 72.6% and 93.3% and 85.5% | – | – | > 100 nM | 78.3% and 81.4% and 77% | 87.9% and 86.6% and 89.3% | viability, T/C (compound 0.000316 µM): 84.4% and 103% and 99.8%; viability, T/C (compound 0.001 µM): 98% and 95.3% and 90.9% |
| NC(=O)C(=Cn1cnc(-c2cc(C(F)(F)F)cc(C(F)(F)F)c2)n1)c1cncnc1 | – | – | – | – | 136 nM and 41.3 nM and > 300 nM | – | – | viability, T/C (compound 0.000949 µM): 92.1% and 79.1% and 89.4%; viability, T/C (compound 0.003 µM): 94.4% and 79.8% and 83.2%; viability, T/C (compound 0.00949 µM): 89.3% and 86.5% and 108%; viability, T/C (compound 0.03 µM): 69.9% and 55.1% and 101%; viability, T/C (compound 0.0949 µM): 49.8% and 38% and 82.4%; viability, T/C (compound 0.3 µM): 49.2% and 25.1% and 59.7% |
| NC1CCC(NC2CC2c2ccccc2)CC1 (stereo not drawn) | 84.2% and 98.8% and 103% | 77.9% and 70.9% and 91.6% | – | – | > 100 nM | 99% and 87.2% and 107% | 83.2% and 87% and 97.1% | viability, T/C (compound 0.000316 µM): 83.9% and 103% and 99%; viability, T/C (compound 0.001 µM): 81.5% and 83.9% and 100% |
| O=C(c1cc(Cc2n[nH]c(=O)c3ccccc23)ccc1F)N1CCN(C(=O)C2CC2)CC1 | 84.8% and 122% and 103% | 109% and 93.1% and 107% | 92.4% and 70.8% and 81.9% | 79.6% and 91.7% and 83.5% | > 10000 nM | – | – | viability, T/C (compound 3.16 µM): 80.8% and 88.8% and 89.9%; viability, T/C (compound 10 µM): 59.2% and 60% and 83.6% |
| O=C(c1ccc(F)c(F)c1Nc1ccc(I)cc1F)N1CC(O)([C@@H]2CCCCN2)C1 | 87.7% and 96.5% and 90.6% | 107% and 102% and 72.1% | 105% and 107% and 108% | 49.5% and 60.2% and 114% | 990 nM and > 1000 nM | 108% and 99.4% and 97.4% | 94.5% and 97% and 98.1% | – |
